Strand notation (5' to 3'): a small letter for the sugar, then the base; units joined by * are phosphorothioate-linked, units joined directly phosphodiester-linked; [ ] holds rarer units or linkages, { } end groups; capitals alone tell only the bases. e = 2'-O-(2-methoxyethyl) (MOE); [5mC] = 5-methylcytosine; d = 2'-deoxy (DNA)
tested on: human Factor 7 mRNA; assay: Dose-dependent antisense inhibition of human Factor 7 in HepB3 cells, electroporation; format: cell-based; conditions: 3.125 μM, approx. 16 hours (Table 15, Example 7)
Experimental: (§1) The gapmers were also transfected via electroporation and their dose-dependent inhibition of human Factor 7 mRNA was measured. Cells were plated at a density of 20,000 cells per well and transfected via electroporation with 3.125 μM, 6.25 μM, 12.5 μM, 25 μM, 50 μM, and 100 μM concentrations of antisense oligonucleotide, as specified in Table 15. After a treatment period of approximately 16 hours, RNA was isolated from the cells and Factor 7 mRNA levels were measured by quantitative real-time PCR. Human Factor 7 primer probe set RTS 2927 was used to measure mRNA levels. Factor 7 mRNA levels were adjusted according to total RNA content, as measured by RIBOGREEN®. Results are presented as percent inhibition of Factor 7, relative to untreated control cells.
as §1, with “Cells were” for “The gapmers were also transfected via electroporation and their dose-dependent inhibition of human Factor 7 mRNA was measured. Cells were”, “in […]. After a” for “in Table 15. After a”, “cells and human Factor 7” for “cells and Factor 7”

Substance | percent inhibition of Factor 7 mRNA, relative to untreated control cells [%]
422183 (antisense eG*e[5mC]*eG*d[5mC]*d[5mC]*dA*d[5mC]*d[5mC]*d[5mC]*dG*d[5mC]*d[5mC]*dG*dG*d[5mC]*dT*d[5mC]*eT*eG*e[5mC]) [compound 422183] | 16

same assay, conditions: 3.125 μM, approx. 16 hours (Table 16, Example 8 confirmation)

Substance | percent inhibition of Factor 7 mRNA, relative to untreated control cells [%]
422183 (antisense eG*e[5mC]*eG*d[5mC]*d[5mC]*dA*d[5mC]*d[5mC]*d[5mC]*dG*d[5mC]*d[5mC]*dG*dG*d[5mC]*dT*d[5mC]*eT*eG*e[5mC]) [compound 422183] | 2

same assay, conditions: 6.25 μM, approx. 16 hours (Table 15, Example 7)

Substance | percent inhibition of Factor 7 mRNA, relative to untreated control cells [%]
422183 (antisense eG*e[5mC]*eG*d[5mC]*d[5mC]*dA*d[5mC]*d[5mC]*d[5mC]*dG*d[5mC]*d[5mC]*dG*dG*d[5mC]*dT*d[5mC]*eT*eG*e[5mC]) [compound 422183] | 28

same assay, conditions: 6.25 μM, approx. 16 hours (Table 16, Example 8 confirmation)

Substance | percent inhibition of Factor 7 mRNA, relative to untreated control cells [%]
422183 (antisense eG*e[5mC]*eG*d[5mC]*d[5mC]*dA*d[5mC]*d[5mC]*d[5mC]*dG*d[5mC]*d[5mC]*dG*dG*d[5mC]*dT*d[5mC]*eT*eG*e[5mC]) [compound 422183] | 3

same assay, conditions: 12.5 μM, approx. 16 hours (Table 15, Example 7)

Substance | percent inhibition of Factor 7 mRNA, relative to untreated control cells [%]
422183 (antisense eG*e[5mC]*eG*d[5mC]*d[5mC]*dA*d[5mC]*d[5mC]*d[5mC]*dG*d[5mC]*d[5mC]*dG*dG*d[5mC]*dT*d[5mC]*eT*eG*e[5mC]) [compound 422183] | 37

same assay, conditions: 12.5 μM, approx. 16 hours (Table 16, Example 8 confirmation)

Substance | percent inhibition of Factor 7 mRNA, relative to untreated control cells [%]
422183 (antisense eG*e[5mC]*eG*d[5mC]*d[5mC]*dA*d[5mC]*d[5mC]*d[5mC]*dG*d[5mC]*d[5mC]*dG*dG*d[5mC]*dT*d[5mC]*eT*eG*e[5mC]) [compound 422183] | 24

same assay, conditions: 25 μM, approx. 16 hours (Table 15, Example 7)

Substance | percent inhibition of Factor 7 mRNA, relative to untreated control cells [%]
422183 (antisense eG*e[5mC]*eG*d[5mC]*d[5mC]*dA*d[5mC]*d[5mC]*d[5mC]*dG*d[5mC]*d[5mC]*dG*dG*d[5mC]*dT*d[5mC]*eT*eG*e[5mC]) [compound 422183] | 44

same assay, conditions: 25 μM, approx. 16 hours (Table 16, Example 8 confirmation)

Substance | percent inhibition of Factor 7 mRNA, relative to untreated control cells [%]
422183 (antisense eG*e[5mC]*eG*d[5mC]*d[5mC]*dA*d[5mC]*d[5mC]*d[5mC]*dG*d[5mC]*d[5mC]*dG*dG*d[5mC]*dT*d[5mC]*eT*eG*e[5mC]) [compound 422183] | 50

same assay, conditions: 50 μM, approx. 16 hours (Table 15, Example 7)

Substance | percent inhibition of Factor 7 mRNA, relative to untreated control cells [%]
422183 (antisense eG*e[5mC]*eG*d[5mC]*d[5mC]*dA*d[5mC]*d[5mC]*d[5mC]*dG*d[5mC]*d[5mC]*dG*dG*d[5mC]*dT*d[5mC]*eT*eG*e[5mC]) [compound 422183] | 59

same assay, conditions: 50 μM, approx. 16 hours (Table 16, Example 8 confirmation)

Substance | percent inhibition of Factor 7 mRNA, relative to untreated control cells [%]
422183 (antisense eG*e[5mC]*eG*d[5mC]*d[5mC]*dA*d[5mC]*d[5mC]*d[5mC]*dG*d[5mC]*d[5mC]*dG*dG*d[5mC]*dT*d[5mC]*eT*eG*e[5mC]) [compound 422183] | 64

same assay, conditions: 100 μM, approx. 16 hours (Table 15, Example 7)

Substance | percent inhibition of Factor 7 mRNA, relative to untreated control cells [%]
422183 (antisense eG*e[5mC]*eG*d[5mC]*d[5mC]*dA*d[5mC]*d[5mC]*d[5mC]*dG*d[5mC]*d[5mC]*dG*dG*d[5mC]*dT*d[5mC]*eT*eG*e[5mC]) [compound 422183] | 71

same assay, conditions: 100 μM, approx. 16 hours (Table 16, Example 8 confirmation)

Substance | percent inhibition of Factor 7 mRNA, relative to untreated control cells [%]
422183 (antisense eG*e[5mC]*eG*d[5mC]*d[5mC]*dA*d[5mC]*d[5mC]*d[5mC]*dG*d[5mC]*d[5mC]*dG*dG*d[5mC]*dT*d[5mC]*eT*eG*e[5mC]) [compound 422183] | 71

tested on: human Factor 7 mRNA; assay: Dose-dependent antisense inhibition of human Factor 7 in HepB3 cells, lipofectin; format: cell-based; conditions: 3.125 nM, HepB3 cells, approx. 16 hours (Table 14)
Procedure, shortened: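 HepB3 cells (4,000/well) lipofectin-transfected with antisense oligonucleotide at 3.125 or 6.25 up to 100 nM for ~16 h. Factor 7 mRNA measured by real-time RT-PCR with primer probe set RTS 2927, adjusted to RIBOGREEN total RNA; expressed as percent inhibition versus untreated control cells.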

Substance | percent inhibition of Factor 7 mRNA, relative to untreated control cells [%]
422183 (antisense eG*e[5mC]*eG*d[5mC]*d[5mC]*dA*d[5mC]*d[5mC]*d[5mC]*dG*d[5mC]*d[5mC]*dG*dG*d[5mC]*dT*d[5mC]*eT*eG*e[5mC]) [compound 422183] | 28

same assay, conditions: 12.5 nM, HepB3 cells, approx. 16 hours (Table 14)

Substance | percent inhibition of Factor 7 mRNA, relative to untreated control cells [%]
422183 (antisense eG*e[5mC]*eG*d[5mC]*d[5mC]*dA*d[5mC]*d[5mC]*d[5mC]*dG*d[5mC]*d[5mC]*dG*dG*d[5mC]*dT*d[5mC]*eT*eG*e[5mC]) [compound 422183] | 56

same assay, conditions: 25 nM, HepB3 cells, approx. 16 hours (Table 14)

Substance | percent inhibition of Factor 7 mRNA, relative to untreated control cells [%]
422183 (antisense eG*e[5mC]*eG*d[5mC]*d[5mC]*dA*d[5mC]*d[5mC]*d[5mC]*dG*d[5mC]*d[5mC]*dG*dG*d[5mC]*dT*d[5mC]*eT*eG*e[5mC]) [compound 422183] | 78

same assay, conditions: 50 nM, HepB3 cells, approx. 16 hours (Table 14)

Substance | percent inhibition of Factor 7 mRNA, relative to untreated control cells [%]
422183 (antisense eG*e[5mC]*eG*d[5mC]*d[5mC]*dA*d[5mC]*d[5mC]*d[5mC]*dG*d[5mC]*d[5mC]*dG*dG*d[5mC]*dT*d[5mC]*eT*eG*e[5mC]) [compound 422183] | 84

same assay, conditions: 100 nM, HepB3 cells, approx. 16 hours (Table 14)

Substance | percent inhibition of Factor 7 mRNA, relative to untreated control cells [%]
422183 (antisense eG*e[5mC]*eG*d[5mC]*d[5mC]*dA*d[5mC]*d[5mC]*d[5mC]*dG*d[5mC]*d[5mC]*dG*dG*d[5mC]*dT*d[5mC]*eT*eG*e[5mC]) [compound 422183] | 88

same assay, conditions: HepB3 cells, approx. 16 hours (Table 14)

Substance | percent inhibition of Factor 7 mRNA, relative to untreated control cells [%]
422183 (antisense eG*e[5mC]*eG*d[5mC]*d[5mC]*dA*d[5mC]*d[5mC]*d[5mC]*dG*d[5mC]*d[5mC]*dG*dG*d[5mC]*dT*d[5mC]*eT*eG*e[5mC]) [compound 422183] | 37

tested on: human Factor 7 mRNA; assay: Antisense inhibition of human Factor 7 mRNA in HepB3 cells, 50 nM antisense oligonucleotide, lipofectin; format: cell-based; conditions: oligonucleotides targeted to nucleobases 13760 to 13789 of SEQ ID NO: 1 (Table 10)
Procedure, shortened: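 Seeding density was 4,000 cells per well. Following roughly 24 hours of oligonucleotide treatment, RNA was extracted and Factor 7 message quantified using the RTS 2927 primer probe set. Levels were corrected for RIBOGREEN® total RNA and expressed against untreated controls.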

Substance | % Inhibition (human Factor 7 mRNA levels) [%]
422183 (antisense eG*e[5mC]*eG*d[5mC]*d[5mC]*dA*d[5mC]*d[5mC]*d[5mC]*dG*d[5mC]*d[5mC]*dG*dG*d[5mC]*dT*d[5mC]*eT*eG*e[5mC]) [compound 422183] | 79

From patent US9029337B2, “Modulation of factor 7 expression” (Isis Pharmaceuticals, Inc., priority 2007, dated 2015)
